Data: PubChem BioAssay AID276 (DTP/NCI, 2004)
Where “and” joins values, the source holds several entries; their conditions need not be identical. Equal entries are not always repeated. Toxic doses and inconclusive results are not listed.

System: B6C3F1 mice, Lewis lung carcinoma iv, survival T/C
Assay: NCI In Vivo Anticancer Drug Screen. Data for tumor model Lewis Lung Carcinoma (intravenous) in B6C3F1 mice
Conditions: endpoint: median survival time, schedule: Q01DX009 (ip), higher = longer survival
How it was run: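 T/C ratio derived from survival of compound-treated versus vehicle-treated mice bearing transplantable tumors.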

[1] = dose: 12.5 mg/kg/injection, vehicle: saline with Tween-80
[2] = dose: 25.0 mg/kg/injection, vehicle: saline with Tween-80
[3] = dose: 50.0 mg/kg/injection, vehicle: saline with Tween-80
[4] = dose: 3.12 mg/kg/injection, vehicle: saline
[5] = dose: 6.25 mg/kg/injection, vehicle: saline
[6] = dose: 12.5 mg/kg/injection, vehicle: saline
[7] = dose: 25.0 mg/kg/injection, vehicle: saline
[8] = dose: 25.0 mg/kg/injection, vehicle: suspension in saline
[9] = dose: 50.0 mg/kg/injection, vehicle: suspension in saline
[10] = dose: 100.0 mg/kg/injection, vehicle: suspension in saline
[11] = dose: 25.0 mg/kg/injection, vehicle: Klucel (hydroxypropylcellulose) (HPC)
[12] = dose: 50.0 mg/kg/injection, vehicle: Klucel (hydroxypropylcellulose) (HPC)
[13] = dose: 100.0 mg/kg/injection, vehicle: Klucel (hydroxypropylcellulose) (HPC)

With `O=C(O)C1CC(c2ccccc2)=NN1c1ccccc1` (stereo not drawn) the T/C (dose: 12.5 mg/kg/injection, vehicle: water) was 102 % of control, the T/C (dose: 25.0 mg/kg/injection, vehicle: water) was 97 % of control and the T/C (dose: 50.0 mg/kg/injection, vehicle: water) was 102 % of control. For the same molecule, the T/C (dose: 100.0 mg/kg/injection, vehicle: water) was 112 % of control and the T/C (dose: 200.0 mg/kg/injection, vehicle: water) was 106 % of control.

For `NS(=O)(=O)OCCCCCCCOS(N)(=O)=O`, the T/C [1] was 91 % of control, the T/C [2] was 98 % of control and the T/C [3] was 88 % of control.

With `O=c1[nH]c2c(ccc3cnccc32)c2c1CCC2` the T/C [4] was 109 % of control, the T/C [5] was 102 % of control and the T/C [6] was 105 % of control. The T/C [7] was 109 % of control.

With `Cc1cc(NS(=O)(=O)c2ccc(N=Nc3cc(N=Nc4ccc(S(=O)(=O)Nc5cc(C)nc(C)n5)cc4)c4c(NC(=O)C(Cl)Cl)cccc4c3OC(=O)C(Cl)Cl)cc2)nc(C)n1` (tested in a mixture with another compound) the T/C [8] was 105 % of control, the T/C [9] was 90 % of control and the T/C [10] was 88 % of control. The T/C (dose: 200.0 mg/kg/injection, vehicle: suspension in saline) was 88 % of control.

With `Cn1cc(C2NC(=O)c3ccccc3N2)c2ccccc21` (stereo not drawn) the T/C [11] was 104 % of control, the T/C [12] was 105 % of control and the T/C [13] was 100 % of control. For the same molecule, the T/C (dose: 200.0 mg/kg/injection, vehicle: Klucel (hydroxypropylcellulose) (HPC)) was 104 % of control.

With `ClCCCN1CCCCC1CCl` (stereo not drawn) the T/C (dose: 0.78 mg/kg/injection, vehicle: saline) was 101 % of control, the T/C (dose: 1.56 mg/kg/injection, vehicle: saline) was 108 % of control and the T/C [4] was 98 % of control. The T/C [5] was 101 % of control and the T/C [6] was 121 % of control.

In the case of `CCC12C[N+]3([O-])CCc4c([nH]c5ccccc45)C(C(=O)OC)(c4cc5c(cc4OC)N(C)C4C(O)(C(=O)OC)C(OC(C)=O)C6(CC)C=CCN7CCC54C76)CC(C3)C1O2` (stereo not drawn), the T/C (dose: 0.62 mg/kg/injection, vehicle: water) is reported as 93 % of control, the T/C (dose: 1.25 mg/kg/injection, vehicle: water) is reported as 94 % of control and the T/C (dose: 2.5 mg/kg/injection, vehicle: water) is reported as 97 % of control. The T/C (dose: 5.0 mg/kg/injection, vehicle: water) was 95 % of control, the T/C (dose: 10.0 mg/kg/injection, vehicle: water) was 98 % of control and the T/C (dose: 20.0 mg/kg/injection, vehicle: water) was 101 % of control.

In the case of `CNC(=O)/C=C/C1=CN2C(=O)c3ccc(C)c(O)c3NC(OC)C2C1` (stereo not drawn), the T/C (dose: 0.01 mg/kg/injection, vehicle: saline) is reported as 90 % of control and 113 % of control, the T/C (dose: 0.02 mg/kg/injection, vehicle: saline) is reported as 93 % of control and the T/C (dose: 0.03 mg/kg/injection, vehicle: saline) is reported as 96 % of control. For the same molecule, the T/C (dose: 0.05 mg/kg/injection, vehicle: saline) was 97 % of control and 107 % of control and the T/C (dose: 0.1 mg/kg/injection, vehicle: saline) was 90 % of control and 103 % of control.

In the case of `C=C(C)[C@@H]1CCc2c(O)c(O)c(=O)cc(C)c2C1`, the T/C (dose: 3.12 mg/kg/injection, vehicle: Klucel (hydroxypropylcellulose) (HPC)) is reported as 90 % of control, the T/C (dose: 6.25 mg/kg/injection, vehicle: Klucel (hydroxypropylcellulose) (HPC)) is reported as 92 % of control and the T/C [11] is reported as 102 % of control. The T/C [12] was 97 % of control and the T/C [13] was 90 % of control.

`COC1=C2C[C@@H](C)C[C@@H](OC)[C@@H](O)[C@H](C)/C=C(\C)[C@@H](OC(N)=O)[C@H](OC)/C=C\C=C(/C)C(=O)NC(=CC1=O)C2=O` was tested, and the T/C (dose: 0.12 mg/kg/injection, vehicle: saline with Tween-80) was 96 % of control, the T/C (dose: 0.13 mg/kg/injection, vehicle: saline with Tween-80) was 109 % of control and the T/C (dose: 0.25 mg/kg/injection, vehicle: saline with Tween-80) was 96 % of control and 110 % of control. The T/C (dose: 0.5 mg/kg/injection, vehicle: saline with Tween-80) was 101 % of control and 108 % of control, the T/C (dose: 1.0 mg/kg/injection, vehicle: saline with Tween-80) was 101 % of control and 106 % of control and the T/C (dose: 2.0 mg/kg/injection, vehicle: saline with Tween-80) was 100 % of control and 106 % of control. For the same molecule, the T/C (dose: 4.0 mg/kg/injection, vehicle: saline with Tween-80) was 102 % of control.

For `CCC(C(=O)O)C(=O)O.[NH-]CC1CCCC[N-]1.[Pt+2]`, the T/C [6] was 105 % of control, the T/C (dose: 12.5 mg/kg/injection, vehicle: suspension in saline) was 103 % of control and the T/C [7] was 106 % of control. The T/C [8] was 104 % of control, the T/C (dose: 50.0 mg/kg/injection, vehicle: saline) was 113 % of control and the T/C [9] was 116 % of control. The T/C [10] was 123 % of control.

In the case of `Nc1nc2c(C(=O)N3CCCC3)nnn2c2ccccc12`, the T/C (dose: 6.25 mg/kg/injection, vehicle: saline with Tween-80) is reported as 100 % of control, the T/C [1] is reported as 99 % of control and the T/C [2] is reported as 100 % of control. For the same molecule, the T/C [3] was 107 % of control and the T/C (dose: 100.0 mg/kg/injection, vehicle: saline with Tween-80) was 99 % of control.

`O=NN(CCF)C(=O)N[C@H]1CCCC[C@H]1O` was tested, and the T/C (dose: 2.5 mg/kg/injection, vehicle: saline) was 105 % of control, the T/C (dose: 5.0 mg/kg/injection, vehicle: saline) was 121 % of control and the T/C (dose: 10.0 mg/kg/injection, vehicle: saline) was 173 % of control. The T/C (dose: 20.0 mg/kg/injection, vehicle: saline) was 312 % of control.

`Cc1c(O)ccc(=O)n1O` was tested, and the T/C (dose: 16.0 mg/kg/injection, vehicle: saline with Tween-80) was 101 % of control, the T/C (dose: 32.0 mg/kg/injection, vehicle: saline with Tween-80) was 99 % of control and the T/C (dose: 64.0 mg/kg/injection, vehicle: saline with Tween-80) was 103 % of control. For the same molecule, the T/C (dose: 128.0 mg/kg/injection, vehicle: saline with Tween-80) was 89 % of control.
